These results are taken from article PMC12029982, “The Mechanism of a Novel Mitochondrial-Targeted Icaritin Derivative in Regulating Apoptosis of BEL-7402 Cells Based on the SIRT3 and CypD-Mediated ROS/p38 MAPK Signaling Pathway” (Molecules, 2025).

“Also recorded” adds a separate entry of the source.

One series relates to A549. Put plainly: MTT assay, antiproliferative activity. Type of series: cell-based. Conditions: Homo sapiens, 48 h drug exposure, mean ± SD. As to the method: (§1) Human cancer cell lines BEL-7402, A549, MCF-7, PC-3M, and normal renal cell line HEK293 were bought from the BeNa Culture Collection (Beijing, China). BEL7402, A549, and PC-3M were cultured in RPMI 1640 medium (Gibco, Carlsbad, CA, USA). MCF-7 and HEK293 were cultured in the DMEM medium (Gibco, CA, USA). The medium was supplemented with 10% fetal bovine serum (FBS) (CLARK, San Diego, CA, USA), 100 U/mL penicillin, and 0.1 mg/mL streptomycin (Beyotime, Nanjing, China). The cells were incubated in 5% CO2 at 37 °C.
(§2) The MTT assay was employed to assess the inhibitory effect of each compound on cell growth. A549, PC-3M, MCF-7, BEL-7402, and HEK293 cells in the logarithmic growth phase were seeded in 96-well culture plates at an inoculum density of 5 × 10^4 cells/mL. After overnight incubation at 37 °C in a 5% CO2 atmosphere, the cells fully adhered to the surface. Different concentrations of sample solutions (0, 3.125, 6.25, 12.5, 25, 50, 100 μmol/L) were added (100 μL) to treat the cells. After 48 h of drug treatment, 10 μL of a 5 mg/mL MTT solution was added to each well and incubated for 4 h at 37 °C. The supernatant was then discarded, and 150 μL of DMSO was added to dissolve the formazan. The mixture was shaken at room temperature for 15 min, and the absorbance (D) value was measured at 490 nm using a Microplate Reader (HBS-ScanY, Nanjing, China). The drug IC50 values were calculated using GraphPad Prism (v10.0). Each cell viability experiment was performed in triplicate.
In general terms: Formazan colour is commonly taken as a measure of viable cells.

A further series concerns BEL-7402. Nature of the series: MTT assay, antiproliferative activity. Type of series: cell-based. The conditions noted are these: Homo sapiens, 48 h drug exposure, mean ± SD. As to the method: as §1, §2
In another series the test system is MCF-7. Put plainly: MTT assay, antiproliferative activity. Type of series: cell-based. The conditions noted are these: Homo sapiens, MCF7, 48 h drug exposure, mean ± SD. The method, then: as §1, §2
The next series relates to PC-3M. Put plainly: MTT assay, antiproliferative activity. Type of series: cell-based. The conditions noted are these: Homo sapiens, 48 h drug exposure, mean ± SD. As to the method:
as §1, §2

Series [1] has as its system mitochondria of BEL-7402 cells. Nature of the series: HPLC analysis of accumulation in mitochondria. Type of series: cell-based, human. Conditions: 10 μM. As to the method:
BEL-7402 cells were cultured in 100 mm Petri dishes. When the cell density reached 90%, the cells were treated with different drugs, all at the same concentration (ICT and Mito-ICT-4 were both set at 10 μM). After 9 h of drug treatment, intracellular mitochondria were isolated from the different drug-treated groups using a mitochondrial isolation kit (Beyotime, Nanjing, China). The mitochondria were resuspended in 200 μL of phosphate-buffered saline (PBS), and an equal volume of anhydrous dichloromethane was added. Ultrasonic extraction was performed three times, and the lower organic phase was collected. Dichloromethane was removed, and the sample was resuspended in 200 μL of 0.1% formic acid in methanol. A 20 μL sample was analyzed and quantified by HPLC. HPLC analysis was conducted using an ALLTECH 26-201 (Jerome, CA, USA) with a flow rate of 1 mL/min. The stationary phase was Agilent ZORBAX SB-C18 (250 mm × 4.6 mm, 5 μm, Santa Clara, CA, USA), and the mobile phase consisted of methanol-0.1% formic acid in water (80:20).

For series [2], the system named is BEL-7402 cells. Nature of the series: Annexin V-FITC/PI flow cytometry apoptosis assay. Format: cell-based, human. The method, then: BEL-7402 cells in the logarithmic growth phase were prepared into a cell suspension at a concentration of 2.5 × 10^5 cells/mL and seeded into 6-well culture plates with 2 mL per well. After overnight incubation, different concentrations of Mito-ICT-4 (0.625, 1.25, 2.5 μmol/L) were added to the cells, and a control group was included. After 48 h of culture, the supernatant was transferred to a centrifuge tube. The cells were then digested with pancreatin (without EDTA) (Beyotime, Nanjing, China) at room temperature and centrifuged at 4 °C for 5 min (10,000 rpm). The supernatant was discarded. Then, 300 μL of 1× buffer was added to each group, and the mixture was well mixed. The mixture was then incubated with 5 μL of Annexin V-FITC (Solarbio, Beijing, China) solution at room temperature for 5 min, protected from light, followed by the addition of 5 μL of PI solution. Apoptosis was detected using flow cytometry (BD Biosciences, Franklin Lakes, NJ, USA).
For orientation: Flow cytometry measures light scatter and fluorescence of single cells or particles in a stream.

For series [3], the system named is BEL-7402 cells. Nature of the series: DCFH-DA probe, intracellular ROS by flow cytometry. Type of series: cell-based, human. Conditions: 48-h treatment, dose-dependent. The method, then: Drug grouping and administration were performed as described in Section 2.6. After 48 h of incubation, 500 μL of DCFH-DA probe (Beyotime, Nanjing, China) was added to each well. The cells were stained for 30 min at 37 °C and protected from light. The dye was then discarded, and the cells were washed three times with a serum-free medium. Samples were analyzed using flow cytometry with an excitation wavelength of 480 nm and an emission wavelength of 525 nm.

Another series relates to CypD. Nature of the series: qRT-PCR. Type of series: cell-based, human. Conditions: vs blank control, BEL-7402, p < 0.05. The method, then:
(§3) Total RNA was extracted from BEL-7402 cells before and after Mito-ICT-4 treatment using the Trizol method. The RNA was then reverse transcribed and used for quantitative real-time PCR (qRT-PCR) analysis. All gene sequences were obtained from the official website of NCBI (http://ncbi.nlm.nih.gov, accessed on 16 December 2023), and primers were designed and synthesized by Sangon Biotech. β-actin was used as an internal reference. To each well, 10 µL of 2 × SGExcel FastSYBR (Sangon Biotech, Shanghai, China) mixture was added, along with 0.4 µL each of forward and reverse primers (F/R), followed by 2 µL of cDNA. The volume was then adjusted to 20 µL with water. The qRT-PCR amplification procedure included the following steps: pre-denaturation at 95 °C for 3 min, denaturation at 95 °C for 15 s, and annealing at 60 °C for 45 s. A total of 45 cycles were performed. Fluorescence signals were collected from 60 °C to 95 °C using an ABI 7500 fluorescence quantitative PCR instrument (ABI, Waltham, MA, USA). Gene expression was calculated using the 2^−ΔΔCt method.
For orientation: Real-time PCR tracks product formation cycle by cycle.

A further series deals with DDIT3. Put plainly: qRT-PCR. Type of series: cell-based, human. Conditions: vs blank control, BEL-7402, p < 0.05. The method, then: as §3
In the next series the test system is MKK6. Nature of the series: qRT-PCR. Type of series: cell-based, human. Conditions: vs blank control, BEL-7402, p < 0.05. As to the method: as §3
A further series has as its system P38. Put plainly: qRT-PCR. Format: cell-based, human. Conditions: vs blank control, BEL-7402, p < 0.05. As to the method: as §3
The subject of the next series is SIRT3. Nature of the series: qRT-PCR. Format: cell-based, human. Conditions: vs blank control, BEL-7402, p < 0.05. As to the method: as §3

For orientation: IC50 means the midpoint of a concentration-inhibition curve. Turning to `COc1ccc(-c2oc3c(CC=C(C)C)c(OC(=O)CCCCCCCCCC[P+](c4ccccc4)(c4ccccc4)c4ccccc4)cc(O)c3c(=O)c2O)cc1` [Mito-ICT-4], the half-inhibitory concentration (IC50) with A549 was found to be 5.15 ± 0.59 µM; in the series on BEL-7402 it was 730 ± 60 nM; in the series on MCF-7, 10.8 ± 1.2 µM; in the series with PC-3M it was 11.3 ± 1.55 µM. Besides, the “fate after entering the mitochondria” value in [1] was “hydrolysis to ICT; also recorded: hydrolyzed to ICT”. Moreover, the “accumulation in mitochondria relative to ICT” value in series [1] (9 h) is reported as “approximately 2.5 times”. Moreover, the “cells undergoing early apoptosis” value in the series with BEL-7402 cells [2] (BEL-7402 cells treated with Mito-ICT-4) is recorded as 27.39%. The “apoptosis-inducing ability relative to ICT” value in the series with BEL-7402 cells [2] (BEL-7402 cells, sentence cites [24]) was “approximately 29.8 times”. In the series with BEL-7402 cells [2] (high-dose group (2.5 μmol/L), 48 h), this compound yielded a total apoptosis rate of 27.39%. Besides, in the series on BEL-7402 cells [3], the “intracellular ROS levels” value is reported as “significantly elevated”. In the series with CypD, the “CypD gene expression level” value is listed as “significantly upregulated”. The “DDIT3 gene expression level” value with DDIT3 was “significantly upregulated”. Moreover, the “MKK6 gene expression level” value with MKK6 is given as “significantly downregulated”. Also, the “P38 gene expression level” value with P38 is given as “significantly downregulated”. The “SIRT3 gene expression level” value in the series on SIRT3 is listed as “significantly downregulated”.
